The text below walks through data of paper PMC4404333, “Identification of Selective Inhibitors of the Plasmodium falciparum Hexose Transporter PfHT by Screening Focused Libraries of Anti-Malarial Compounds” (PLoS ONE, 2015).

≈ marks a conversion by molar mass, not a printed value. Counter-ions that a name gives are not always drawn.

Data set [1] can be described thus: Parallel artificial membrane permeability assay (PAMPA). Conditions: for Permeation: pH 7.4; for Retention: retention in artificial membrane. Here is the method: A parallel artificial membrane permeability assay (PAMPA) was conducted on a Biomek FX lab automation workstation (Beckman Coulter, Inc.) with PAMPA evolution 96 command software (pION Inc.) as follows: 3 μL of 10 mM test compound stock was mixed with 600 μL of PBS (pH 7.4) to make diluted test compound. Then 150 μL of diluted test compound was transferred to a UV plate (pION Inc.), and the UV spectrum was read as the reference plate. The membrane on a preloaded PAMPA sandwich (pION Inc.) was painted with 4 μL of GIT lipid (pION Inc.). The acceptor chamber was then filled with 200 μL of acceptor solution buffer (pION Inc.), and the donor chamber was filled with 180 μL of diluted test compound. The PAMPA sandwich was assembled, placed on the Gut-Box controlled environment chamber and stirred for 30 min. The aqueous boundary layer was set to 40 μm for stirring. The UV spectrum (250–500 nm) of the donor and the acceptor were read. The permeability coefficient was calculated using PAMPA Evolution 96 Command software (pION Inc.) based on the AUC of the reference plate, the donor plate, and the acceptor plate. All compounds were tested in triplicate.
For orientation: PAMPA measures passive passage across an artificial lipid membrane.

Data set [2] is described as follows: Solubility assay. The format is physicochemical. Particulars: aqueous buffer, kinetic from dmso stock, PBS pH 7.4, room temperature. Here is the method:
Next, 5 μL of this reference stock plate was mixed with 70 μL of 1-propanol and 75 μL of PBS (pH 7.4) to make the reference plate, and the UV spectrum (250–500 nm) of the reference plate was read. Then, 6 μL of 10 mM test compound stock was added to 600 μL of PBS, pH 7.4, in a 96-well storage plate and mixed. The storage plate was sealed and incubated at room temperature for 18 h. The suspension was then filtered through a 96-well filter plate (pION Inc.). Next, 75 μL of filtrate was mixed with 75 μL of 1-propanol to make the sample plate, and the UV spectrum of the sample plate was read. Calculations were done using μSOL Evolution software based on the area under the curve (AUC) of the UV spectrum of the sample plate and the reference plate. All compounds were tested in triplicate.

Data set [3] relates to BJ cell line (human foreskin fibroblasts). Nature of the data set: Mammalian cell drug susceptibility assay (Cell Titer Glo, 72 h). Type of data set: cell-based. Here is the method: The BJ cell line (human foreskin fibroblasts), which express GLUT1 [26], was purchased from the ATTC and cultured according to recommendations. 1000 exponentially growing cells were plated per well (25 μL) in white polystyrene flat bottom sterile 384-well tissue culture treated plates (Corning), and incubated overnight at 37°C in a humidified 5% CO2 incubator. DMSO inhibitor stock solutions were pin-transferred (V&P Scientific) the following day. Plates were placed back in the incubator for 72 h incubation and equilibrated at room temperature for 20 min before addition of 25 μL Cell Titer Glo (Promega) to each well. Plates were shaken on an orbital shaker for 2 min at 500 rpm. Luminescence was read after 15 min on an Envision plate reader (Perkin Elmer). EC50 values were calculated with a custom program (RISE, Robust Investigation of Screening Experiments) using a four-parameter logistic equation.

The target in data set [4] is T1, human GLUT1 (Homo sapiens, UniProt P11166).
T1 sequence (P11166 1-492): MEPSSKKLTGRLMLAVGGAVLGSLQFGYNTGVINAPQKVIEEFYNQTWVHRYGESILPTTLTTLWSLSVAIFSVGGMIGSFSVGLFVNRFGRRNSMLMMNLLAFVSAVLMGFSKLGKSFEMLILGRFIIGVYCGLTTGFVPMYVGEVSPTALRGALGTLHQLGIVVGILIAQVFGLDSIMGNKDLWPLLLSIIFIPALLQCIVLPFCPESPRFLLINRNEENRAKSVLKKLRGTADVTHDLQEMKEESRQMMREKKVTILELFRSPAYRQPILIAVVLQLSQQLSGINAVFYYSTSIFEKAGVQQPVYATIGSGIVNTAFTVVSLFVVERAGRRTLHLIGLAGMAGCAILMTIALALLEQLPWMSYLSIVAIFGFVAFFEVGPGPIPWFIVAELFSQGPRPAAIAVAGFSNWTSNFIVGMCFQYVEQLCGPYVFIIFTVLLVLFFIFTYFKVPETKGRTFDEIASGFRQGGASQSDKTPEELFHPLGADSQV
Conditions: 1 mM concentration; cited from earlier work.

In data set [5] the test system is P. berghei parasites. Set-up: method as in PMID 12792024. Particulars: mice infected with P. berghei, 25 mg/kg (i.p.) twice daily; cited from earlier work.
Data set [6] has as its system hepatic stage and ookinetes of P. berghei. Set-up: method as in PMID 21169382, PMID 21402842. Particulars: cited from earlier work.
Data set [7] relates to intraerythrocytic P. falciparum parasites. Set-up: method as in PMID 12792024. Conditions: read-out: IC50 growth of intraerythrocytic P. falciparum parasites in vitro; cited from earlier work.
For data set [8], the target named is PfHT (Plasmodium falciparum, UniProt Q7KWJ5). Particulars: read-out: Ki for glucose uptake by PfHT; cited from earlier work.
Sequence of PfHT (Q7KWJ5 whole entry): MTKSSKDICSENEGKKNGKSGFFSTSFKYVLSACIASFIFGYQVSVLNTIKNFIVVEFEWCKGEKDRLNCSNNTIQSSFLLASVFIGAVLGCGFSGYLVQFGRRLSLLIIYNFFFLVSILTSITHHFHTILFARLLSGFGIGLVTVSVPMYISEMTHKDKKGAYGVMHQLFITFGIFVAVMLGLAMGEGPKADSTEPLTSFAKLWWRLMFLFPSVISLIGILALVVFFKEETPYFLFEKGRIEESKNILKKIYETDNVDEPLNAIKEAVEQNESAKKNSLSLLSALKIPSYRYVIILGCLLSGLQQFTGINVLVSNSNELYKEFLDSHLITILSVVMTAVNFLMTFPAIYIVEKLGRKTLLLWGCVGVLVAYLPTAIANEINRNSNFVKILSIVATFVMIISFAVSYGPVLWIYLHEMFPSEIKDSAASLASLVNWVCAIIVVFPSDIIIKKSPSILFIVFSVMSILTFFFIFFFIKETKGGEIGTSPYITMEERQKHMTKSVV

A word on the solubility: it is the dissolved amount per volume that the medium holds. Low readings indicate a poorly soluble substance, high ones a readily soluble substance. On to `CCCSc1ccc2nc(NC(=O)OC)[nH]c2c1` [Albendazole, albendazole, reference compound], for which, in data set [1], the Permeation was 286 ND 10^-6 cm/s and the Retention is on record as 59 ± 27%. The same compound came in with a solubility at 18 h in data set [2] of 5.9 ± 2.3 µM (≈ 1.57 µg/mL).
Regarding `NC(=O)N1c2ccccc2C=Cc2ccccc21` [Carbamazepine, carbamazepine, reference compound], in data set [1], the Permeation is 85 ± 21 10^-6 cm/s and the Retention stood at 43 ± 3.0%. For the same compound, the concentration in solution in data set [2] (PBS buffer) (solubility at 18 h) was 87 ± 1.2 µM (≈ 20.6 µg/mL).
The EC50 is the concentration giving half of the maximal effect. `CC(C)=CCC[C@]1(C)C=Cc2c(O)c3c(c(CC=C(C)C)c2O1)O[C@]12C(=C[C@@H]4C[C@H]1C(C)(C)O[C@@]2(C/C=C(/C)C(=O)O)C4=O)C3=O` [Gambogic acid, gambogic acid, reference compound] came in with an EC50 in data set [3] of 2.5 µM.
As to `CNC(=C[N+](=O)[O-])NCCSCc1ccc(CN(C)C)o1` [Ranitidine HCl, ranitidine, reference compound], in data set [1], the Permeation is 0 ± 0 10^-6 cm/s and the Retention was determined as 1.7 ± 1.3%. The solubility at 18 h in data set [2] (PBS buffer) is 84 ± 1.2 µM.
By IC50 is commonly meant the concentration that inhibits the measured activity by half. What is called Ki is a measure of affinity in units of concentration, obtained from inhibition or displacement. On to `C=CCCCCCCCCCO[C@@H]([C@H](O)[C@H](O)CO)[C@@H](O)C=O` [compound 3361, 3-O-((undec-10-en)-1-yl)-D-glucose], for which the “inhibition of GLUT1” value in data set [4] is “no significant inhibition”. Further, the reduction in parasitemia in data set [5] is 40%. For the same compound, the “inhibition of viability of liver and mosquito stages” value in data set [6] is reported as “strong inhibition of viability”. The IC50 in data set [7] is 15.7 µM. In data set [8], the Ki is 53 µM.
